Laboratory results reported in US20260183275A1, “SUBSTITUTED QUINOLONE COMPOUNDS USEFUL AS INHIBITORS OF TLR9” (Bristol-Myers Squibb Company, priority 2022, published 2026).

Columns and labels:
Type in all cases: cell-based
human TLR8 = molecular target: T1, human TLR8 (Homo sapiens, UniProt Q9NR97); assay: TLR8 inhibition reporter assay (HEK-Blue cells, SEAP reporter); details: HEK-Blue cells overexpressing human TLR8; stimulated with R848 15.9 μM; SEAP read after 22 hour; dose range 0.05 nM-50 μM
T1 construct: host or cells: HEK-Blue cells
T1 sequence (Q9NR97 27-1041): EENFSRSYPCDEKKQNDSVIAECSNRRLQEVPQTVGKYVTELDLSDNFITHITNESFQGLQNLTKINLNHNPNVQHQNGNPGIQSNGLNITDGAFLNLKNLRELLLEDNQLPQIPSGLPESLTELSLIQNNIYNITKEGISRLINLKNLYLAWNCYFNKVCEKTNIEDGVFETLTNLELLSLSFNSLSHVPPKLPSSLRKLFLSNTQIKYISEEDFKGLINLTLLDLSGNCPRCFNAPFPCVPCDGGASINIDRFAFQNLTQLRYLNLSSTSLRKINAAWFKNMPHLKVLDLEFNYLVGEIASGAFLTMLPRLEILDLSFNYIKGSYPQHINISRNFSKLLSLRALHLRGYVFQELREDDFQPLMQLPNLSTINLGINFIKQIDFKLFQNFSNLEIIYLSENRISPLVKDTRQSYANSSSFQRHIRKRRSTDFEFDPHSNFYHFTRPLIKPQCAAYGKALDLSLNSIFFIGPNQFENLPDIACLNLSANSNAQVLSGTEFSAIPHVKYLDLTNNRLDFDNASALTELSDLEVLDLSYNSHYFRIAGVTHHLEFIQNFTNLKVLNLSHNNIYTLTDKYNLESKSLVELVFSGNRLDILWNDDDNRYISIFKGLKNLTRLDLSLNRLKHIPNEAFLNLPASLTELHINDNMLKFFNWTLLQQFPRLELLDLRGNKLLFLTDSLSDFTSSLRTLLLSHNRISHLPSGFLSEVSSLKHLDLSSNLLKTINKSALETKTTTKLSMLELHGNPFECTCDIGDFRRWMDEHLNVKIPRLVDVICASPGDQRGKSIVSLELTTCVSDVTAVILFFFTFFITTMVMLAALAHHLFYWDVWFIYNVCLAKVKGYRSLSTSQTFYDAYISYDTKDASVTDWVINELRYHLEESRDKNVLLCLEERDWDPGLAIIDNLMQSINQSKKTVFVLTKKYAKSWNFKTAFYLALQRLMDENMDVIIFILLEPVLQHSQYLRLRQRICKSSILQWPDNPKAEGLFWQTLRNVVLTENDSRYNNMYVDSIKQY
Protocol: (§1) HEK-Blue™-cells (Invivogen) overexpressing human TLR7, TLR8 or TLR9 receptors were used for screening inhibitors of these receptors using an inducible SEAP (secreted embryonic alkaline phosphatase) reporter gene under the control of the IFN-β minimal promoter fused to five NF-κB and AP-1-binding sites. Briefly, cells are seeded into Greiner 384 well plates (15000 cells per well for TLR7, 20,000 for TLR8 and 25,000 for TLR9) and then treated with test compounds in DMSO to yield a final dose response concentration range of 0.05 nM-50 μM. After a 30 minute compound pre-treatment at room temperature, the cells are then stimulated with a TLR7 ligand (gardiquimod at a final concentration of 7.5 μM), TLR8 ligand (R848 at a final concentration of 15.9 μM) or TLR9 ligand (ODN2006 at a final concentration of 5 nM) to activate NF-κB and AP-1 which induce the production of SEAP. After a 22 hour incubation at 37° C., 5% CO2, SEAP levels are determined with the addition of HEK-Blue™ Detection reagent (Invivogen), a cell culture medium that allows for detection of SEAP, according to manufacturer's specifications. The percent inhibition is determined as the % reduction in the HEK-Blue signal present in wells treated with agonist plus DMSO alone compared to wells treated with a known inhibitor.

human TLR7 = molecular target: T2, human TLR7 (Homo sapiens, UniProt Q9NYK1); assay: TLR7 inhibition reporter assay (HEK-Blue cells, SEAP reporter); details: HEK-Blue cells overexpressing human TLR7; stimulated with gardiquimod 7.5 μM; SEAP read after 22 hour; dose range 0.05 nM-50 μM
T2 construct: host or cells: HEK-Blue cells
T2 sequence (Q9NYK1 27-1049): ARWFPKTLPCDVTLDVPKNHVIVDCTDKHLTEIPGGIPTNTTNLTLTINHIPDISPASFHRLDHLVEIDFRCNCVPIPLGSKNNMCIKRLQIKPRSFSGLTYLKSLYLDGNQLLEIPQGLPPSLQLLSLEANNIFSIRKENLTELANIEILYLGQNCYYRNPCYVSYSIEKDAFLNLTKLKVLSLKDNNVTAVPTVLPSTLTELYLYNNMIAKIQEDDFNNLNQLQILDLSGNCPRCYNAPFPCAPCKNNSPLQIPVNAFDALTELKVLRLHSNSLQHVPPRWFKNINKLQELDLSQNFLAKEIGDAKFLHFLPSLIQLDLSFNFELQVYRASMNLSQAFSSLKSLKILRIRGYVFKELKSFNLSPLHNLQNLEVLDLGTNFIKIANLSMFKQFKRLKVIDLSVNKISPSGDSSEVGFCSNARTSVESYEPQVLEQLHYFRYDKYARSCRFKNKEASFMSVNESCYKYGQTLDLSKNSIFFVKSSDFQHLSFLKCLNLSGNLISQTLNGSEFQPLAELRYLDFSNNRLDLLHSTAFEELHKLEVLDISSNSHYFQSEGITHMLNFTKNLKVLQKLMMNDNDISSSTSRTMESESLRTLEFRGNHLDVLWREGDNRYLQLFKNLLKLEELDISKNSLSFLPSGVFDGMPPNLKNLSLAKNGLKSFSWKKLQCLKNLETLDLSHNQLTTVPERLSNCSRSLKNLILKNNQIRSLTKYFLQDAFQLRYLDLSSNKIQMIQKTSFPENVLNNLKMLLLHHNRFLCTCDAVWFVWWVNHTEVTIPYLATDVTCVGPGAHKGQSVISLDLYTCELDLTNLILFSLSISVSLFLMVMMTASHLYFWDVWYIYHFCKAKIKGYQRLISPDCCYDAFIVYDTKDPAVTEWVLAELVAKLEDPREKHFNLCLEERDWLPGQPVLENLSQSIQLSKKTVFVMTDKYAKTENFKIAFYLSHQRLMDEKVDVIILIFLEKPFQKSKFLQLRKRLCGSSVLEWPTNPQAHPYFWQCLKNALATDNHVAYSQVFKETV
Protocol: as §1

human TLR9 = molecular target: T3, human TLR9 (Homo sapiens, UniProt Q9NR96); assay: TLR9 inhibition reporter assay (HEK-Blue cells, SEAP reporter); details: HEK-Blue cells overexpressing human TLR9; stimulated with ODN2006 5 nM; SEAP read after 22 hour; dose range 0.05 nM-50 μM
T3 construct: host or cells: HEK-Blue cells
T3 sequence (Q9NR96 26-1032): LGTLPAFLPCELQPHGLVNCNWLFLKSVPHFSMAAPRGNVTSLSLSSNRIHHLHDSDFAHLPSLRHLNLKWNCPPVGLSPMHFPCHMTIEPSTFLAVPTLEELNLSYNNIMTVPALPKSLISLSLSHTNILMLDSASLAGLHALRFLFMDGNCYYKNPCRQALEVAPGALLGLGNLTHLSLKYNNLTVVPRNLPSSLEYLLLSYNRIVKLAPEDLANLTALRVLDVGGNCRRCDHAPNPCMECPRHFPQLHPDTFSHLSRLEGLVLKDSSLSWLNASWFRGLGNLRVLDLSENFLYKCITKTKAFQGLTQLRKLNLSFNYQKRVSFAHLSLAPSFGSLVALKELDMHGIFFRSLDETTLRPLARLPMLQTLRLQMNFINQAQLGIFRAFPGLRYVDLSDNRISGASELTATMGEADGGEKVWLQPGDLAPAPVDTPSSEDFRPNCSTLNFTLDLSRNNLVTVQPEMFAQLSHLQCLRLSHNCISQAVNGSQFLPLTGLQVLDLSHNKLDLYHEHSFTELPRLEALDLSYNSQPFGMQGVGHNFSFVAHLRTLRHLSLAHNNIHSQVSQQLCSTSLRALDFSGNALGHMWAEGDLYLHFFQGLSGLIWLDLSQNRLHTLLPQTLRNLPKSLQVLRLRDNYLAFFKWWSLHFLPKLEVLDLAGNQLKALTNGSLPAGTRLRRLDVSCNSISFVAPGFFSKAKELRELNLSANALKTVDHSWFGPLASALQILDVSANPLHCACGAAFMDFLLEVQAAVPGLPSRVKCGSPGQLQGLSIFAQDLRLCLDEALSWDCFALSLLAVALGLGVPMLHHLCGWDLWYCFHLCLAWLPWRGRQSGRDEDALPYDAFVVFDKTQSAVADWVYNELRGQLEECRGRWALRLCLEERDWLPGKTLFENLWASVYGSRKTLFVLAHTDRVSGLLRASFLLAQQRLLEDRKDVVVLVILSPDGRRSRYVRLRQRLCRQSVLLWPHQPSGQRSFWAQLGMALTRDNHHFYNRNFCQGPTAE
Protocol: as §1

| SMILES | IC50 (human TLR8) | IC50 (human TLR7) | IC50 (human TLR9) |
| --- | --- | --- | --- |
| CC(C)N1CCN(c2ccc(-c3ccc4[nH]c(=O)c(-c5ccc(S(C)(=O)=O)cc5)cc4c3)cc2)CC1 [Example 4, 3-(4-methanesulfonylphenyl)-6-{4-[4-(propan-2-yl)piperazin-1-yl]phenyl}-1,2-dihydroquinolin-2-one] | ≥ 50000 nM | 4690 nM | 206 nM |
| CC(=O)Nc1ccc(-c2cc3cc(-c4ccc(N5CCN(C(C)C)CC5)cc4)ccc3[nH]c2=O)cc1 [Example 5, N-[4-(2-oxo-6-{4-[4-(propan-2-yl)piperazin-1-yl]phenyl}-1,2-dihydroquinolin-3-yl)phenyl]acetamide] | ≥ 50000 nM | 3870 nM | 59 nM |
| CC(C)N1CCN(c2ccc(-c3ccc4[nH]c(=O)c(-c5ccccn5)cc4c3)cc2)CC1 [Example 6, 6-{4-[4-(propan-2-yl)piperazin-1-yl]phenyl}-3-(pyridin-2-yl)-1,2-dihydroquinolin-2-one] | ≥ 50000 nM | 3830 nM | 79 nM |
| CC(C)N1CCN(c2ccc(-c3ccc4[nH]c(=O)c(-c5ccc(-n6cnnn6)cc5)cc4c3)cc2)CC1 [Example 7, 3-(4-(1H-tetrazol-1-yl)phenyl)-6-(4-(4-isopropylpiperazin-1-yl)phenyl)quinolin-2(1H)-one] | ≥ 50000 nM | 1130 nM | 80 nM |
| CC(C)N1CCN(c2ccc(-c3ccc4[nH]c(=O)c(-c5cccc(NS(C)(=O)=O)c5)cc4c3)cc2)CC1 [Example 8, N-[3-(2-oxo-6-{4-[4-(propan-2-yl)piperazin-1-yl]phenyl}-1,2-dihydroquinolin-3-yl)phenyl]methanesulfonamide] | 1820 nM | 299 nM | 87 nM |
| CC(C)N1CCN(c2ccc(-c3ccc4[nH]c(=O)c(-c5ccc(N(C)C)cc5)cc4c3)cc2)CC1 [Example 9, 3-[4-(dimethylamino)phenyl]-6-{4-[4-(propan-2-yl)piperazin-1-yl]phenyl}-1,2-dihydroquinolin-2-one] | 13700 nM | 3070 nM | 96 nM |
| CC(C)N1CCN(c2ccc(-c3ccc4[nH]c(=O)c(-c5cc(F)c(F)cc5F)cc4c3)cc2)CC1 [Example 10, 6-{4-[4-(propan-2-yl)piperazin-1-yl]phenyl}-3-(2,4,5-trifluorophenyl)-1,2-dihydroquinolin-2-one] | ≥ 50000 nM | ≥ 50000 nM | 118 nM |
| CC(C)N1CCN(c2ccc(-c3ccc4[nH]c(=O)c(-c5ccc(S(N)(=O)=O)cc5)cc4c3)cc2)CC1 [Example 11, 4-(2-oxo-6-{4-[4-(propan-2-yl)piperazin-1-yl]phenyl}-1,2-dihydroquinolin-3-yl) benzene-1-sulfonamide] | 2050 nM | ≥ 50000 nM | 119 nM |
| CC(C)N1CCN(c2ccc(-c3ccc4[nH]c(=O)c(-c5ccc(C#N)cc5)cc4c3)cc2)CC1 [Example 12, 4-(2-oxo-6-{4-[4-(propan-2-yl)piperazin-1-yl]phenyl}-1,2-dihydroquinolin-3-yl)benzonitrile] | 7560 nM | 3000 nM | 121 nM |
| CC(C)N1CCN(c2ccc(-c3ccc4[nH]c(=O)c(-c5ccc(C(=O)N(C)C6COC6)cc5)cc4c3)cc2)CC1 [Example 13, N-methyl-N-(oxetan-3-yl)-4-(2-oxo-6-{4-[4-(propan-2-yl)piperazin-1-yl]phenyl}-1,2-dihydroquinolin-3-yl)benzamide] | ≥ 50000 nM | 4890 nM | 122 nM |
| CC(C)N1CCN(c2ccc(-c3ccc4[nH]c(=O)c(-c5ccccc5C#N)cc4c3)cc2)CC1 [Example 15, 2-(2-oxo-6-{4-[4-(propan-2-yl)piperazin-1-yl]phenyl}-1,2-dihydroquinolin-3-yl)benzonitrile] | 1030 nM | 459 nM | 259 nM |
| CC(C)N1CCN(c2ccc(-c3ccc4[nH]c(=O)c(-c5cncnc5)cc4c3)cc2)CC1 [Example 34, 6-{4-[4-(propan-2-yl)piperazin-1-yl]phenyl}-3-(pyrimidin-5-yl)-1,2-dihydroquinolin-2-one] |  | 1080 nM | 307 nM |
| CC(C)N1CCC(c2ccc(-c3ccc4[nH]c(=O)c(-c5ccc(N(C)C)cc5)cc4c3)cc2)CC1 [Example 88, 3-[4-(dimethylamino)phenyl]-6-{4-[1-(propan-2-yl)piperidin-4-yl]phenyl}-1,2-dihydroquinolin-2-one] | 118 nM |  | 449 nM |
